Assay results taken from US7101915B1, “P-terphenyl compounds” (Shionogi & Co., Ltd., priority 1996, dated 2006).
≈ marks a conversion by molar mass, not a printed value.

Tests used:
Type in all cases: cell-based
[1] = tested on: C3H/HeN mouse splenocytes stimulated with Concanavalin A (Con A); experiment: Suppressive effect on mitogenic activity of mouse splenocytes in vitro, Con A as mitogen (MTT); conditions: Con A 5 μg/ml as mitogen, 3 days
Procedure: (§1) Experiment 1 Suppressive Effect on a Mitogenic Activity of Mouse Splenocytes In Vitro
(§2) In 96-well microtiter plate 5×10^5 C3H/HeN mouse splenocytes suspended in 0.1 ml of 10% fetal bovine serum-fortified RPMI 1640 medium containing 2 mM of sodium bicarbonate, 50 units/ml of penicillin, 50 μg/ml of streptomycin and 5×10^−5 M of 2-mercaptoethanol were added. Then, 5 μg/ml of Concanavalin A (Con A) or 10 μg/ml of lipopolysaccharide (LPS) as a mitogen and the compound of a pre-determined concentration of the present invention were added to each well so that a final volume of each well reached 0.2 ml. Each compound of the present invention was dissolved in dimethylsulfoxide (DMSO) and diluted with the above RPMI 1640 medium to adjust the final concentration of 100 ng/ml or less. The splenocytes in the 96-well microtiter plate were cultivated at 37° C. for 3 days in an incubator keeping the humidity 100%, carbon dioxide 5% and air 95%. Then, 25 μl of 6 mg/ml MTT [3-(4,5-dimethylthiazol-2-yl)-2,5-diphenyltetrazolium bromide] (Sigma) was added to the each well and cultivated at 37° C. for 4 hours under the same conditions. After the cultivation, 50 μl of 0.02 N hydrochloric acid in 20% sodium dodecyl sulfate (SDS) was added to formazan generated and left at 37° C. for 24 hours for dissolving formazan. An absorption intensity (OD) of formazan generated in proportion to the number of living cells was measured with an immunoreader (InterMed) equipped with a 570 nm filter (The Journal of Immunological Method, 65, 55-63, 1983). The 50% inhibitory concentration of a cell proliferation (IC 50) was calculated from a correlation between the concentration of the compound of the present invention and the absorption intensity.

[2] = tested on: mouse thymoma strain EL4 cells; experiment: Anti-proliferative activity on EL4 cells (MTT); conditions: 3 days
Procedure: Experiment 2 Anti-Proliferative Activity on EL4 Cells
In 96-well microtiter plate 4×10^4/0.1 ml of mouse thymoma strain EL4 cells were added and 0.1 ml of the compound of the present invention was added to the mixture so that the concentration was in the range of 0-5,000 ng/ml. After the cultivation for 3 days, the IC50 was calculated by the MTT method as described in Experiment 1.

[3] = tested on: C3H/HeN mouse splenocytes stimulated with lipopolysaccharide (LPS); experiment: Suppressive effect on mitogenic activity of mouse splenocytes in vitro, LPS as mitogen (MTT); conditions: LPS 10 μg/ml as mitogen, 3 days
Procedure: as §1, §2

[4] = tested on: IL-2 production of mouse T cell strain EL-4 (TPA); experiment: Suppressive effect on the cytokine production of mouse T cell strain EL-4: IL-2; conditions: EL-4, TPA 10 ng/ml, 24 hours, ELISA
Procedure: (§3) Experiment 8 Suppressive Effect on the Cytokine Production of a Mouse T Cell Strain EL-4 In 48-well plate were added 2×10^5 mouse T cell strain EL-4 which were suspended in 0.2 ml of 1% fetal bovine serum-added RPMI 1640 medium (2 mM of sodium bicarbonate, 50 units/ml of penicillin, 50 μg/ml of streptomycin and 5×10^−5 M of 2-mercaptoethanol were added) and the compound of the present invention of a predetermined concentration. TPA was added as a cell stimulater at a final concentration of 10 ng/ml to adjust a final volume of each well to 0.4 ml. Each compound of the present invention was dissolved in DMSO and diluted with the above RPMI 1640 medium, and then for added at a final concentration of 100 ng/ml or less. The cells in the 48-well plate were cultivated in an incubator keeping the humidity 100%, carbon dioxide 5% and air 95% at 37° C. for 24 hours to collect a supernatant of each well. The amount of IL-2, IL-4 and IL-5 released in the medium of each well were measured with the ELISA kit (Amersham K. K.) to be taken as an index of the cytokine production of the cells. TPA free group (-TPA) was used as a control.

[5] = tested on: IL-4 production of mouse T cell strain EL-4 (TPA); experiment: Suppressive effect on the cytokine production of mouse T cell strain EL-4: IL-4; conditions: EL-4, TPA 10 ng/ml, 24 hours, ELISA
Procedure: as §3

[6] = tested on: IL-5 production of mouse T cell strain EL-4 (TPA); experiment: Suppressive effect on the cytokine production of mouse T cell strain EL-4: IL-5; conditions: EL-4, TPA 10 ng/ml, 24 hours, ELISA
Procedure: as §3

Row | SMILES | EL-4 IC50 [2] [ng/mL] | ConA IC50 [1] [ng/mL] | LPS IC50 [3] [ng/mL] | further results
1 | COc1cc(-c2c(OC)cc(-c3ccc(OS(C)(=O)=O)cc3)c(OC)c2OS(C)(=O)=O)ccc1OCC=C(C)C [Compound I-248] | 312 | <10 | <10 | 
2 | COCOc1c(OC)c(-c2ccc(OS(C)(=O)=O)cc2)cc(OC)c1-c1ccc(OCc2ccccc2)c(O)c1 [Compound I-163] | <20 | <20 | <20 | 
3 | COc1cc(-c2ccc(OCC=C(C)C)c(O)c2)c(OC)cc1-c1ccc(OCC=C(C)C)c(O)c1 [Compound I-66] | 0.48 | 0.22 | 0.35 | 
4 | COc1cc(-c2ccc3c(c2)OCO3)c(OC)c(O)c1-c1ccc(OCC=C(C)C)c(O)c1 [Compound I-62] | 23.4 | 29.2 | 25 | 
5 | COc1cc(-c2ccc(O)cc2)c(OC)c(CO)c1-c1ccc(OCC=C(C)C)c(OS(C)(=O)=O)c1 [Compound I-12] | 46.2 | 1.3 | 2.8 | 
6 | COc1cc(-c2c(OC)cc(-c3ccc(O)cc3)c(OC)c2CO)ccc1OCC=C(C)C [Compound I-513] | 61.8 | 6.89 | 11.1 | 
7 | C=C/C=C\COc1ccc(-c2c(OC)cc(-c3ccc(O)cc3)c(OC)c2O)cc1O [Compound I-175] | <20 | <20 | 29.4 | 
8 | COc1cc(-c2ccc(OCc3ccccc3)c(N)c2)c(OC)cc1-c1ccc(OS(C)(=O)=O)cc1 [Compound I-418] | >10000 | 255 | 497 | 
9 | COc1ccccc1-c1cc(OC)c(-c2ccc(OCC=C(C)C)c(O)c2)c(O)c1OC [Compound I-276] | 200 | 1.8 | 3.1 | 
10 | COc1cc(-c2c(O)c(OC)c(-c3ccc(O)cc3)c(F)c2OC)ccc1OCC=C(C)C [Compound I-1107] |  |  |  | IC50 ([1]; Mus musculus, Splenocyte, 72 h, read-out: ConA IC50): 5.8 ng/mL (≈ 0.0128 µM); IC50 ([2]; Mus musculus, 72 h, read-out: EL-4 IC50): 0.0341 µg/mL (≈ 0.075 µM); IC50 ([3]; Mus musculus, Splenocyte, 72 h): 9.1 ng/mL (≈ 0.02 µM)
11 | COc1cc(-c2ccc(C(C)C)cc2)c(OC)c(OS(C)(=O)=O)c1-c1ccc(OCc2ccccc2)c(O)c1 [Compound I-361] | 124 | <20 | <20 | 
12 | COc1cc(-c2ccc(OCc3ccccc3)c(O)c2)c(OC)cc1-c1ccc(OCc2ccccc2)c(O)c1 [Compound I-63] | 16 | 13 | 27 | 

Now from value to compound, other results behind:

Row | EL-4 IC50 [2] [ng/mL] | SMILES | ConA IC50 [1] [ng/mL] | LPS IC50 [3] [ng/mL] | further results
13 | 15.8 | C#CC(O)COc1ccc(-c2c(OC)cc(-c3ccc(O)cc3)c(OC)c2O)cc1O (stereo not drawn) [Compound I-301] | 7.06 | 11.0 | IC50 IL-2 [4]: 500 ng/mL (≈ 1.18 µM); IC50 IL-4 [5]: <10 ng/mL; IC50 IL-5 [6]: 120 ng/mL (≈ 0.284 µM)
14 | 37.4 | CC#CCOc1ccc(-c2c(OC)cc(-c3ccc(O)cc3)c(OC)c2O)cc1O [Compound I-40] | 6.1 | 16.5 | 
15 | 67.5 | C=CCOc1ccc(-c2c(OC)cc(-c3ccc(O)cc3)c(OC)c2O)cc1O [Compound I-46] | 10.6 | 23.9 | 
16 | 12 | COCOc1c(OC)c(-c2ccc(OC)cc2)cc(OC)c1-c1ccc(OCc2ccccc2)c(O)c1 [Compound I-107] | 0.6 | 0.7 | 
17 | 310 | COc1cc(-c2ccc(N(C)C)cc2)c(OC)c(O)c1-c1ccc(OCc2ccc(C)cc2)c(O)c1 [Compound I-256] | <20 | 28.7 | 
18 | <20 | COc1cc(-c2ccc(N(C)C)cc2)c(OC)c(O)c1-c1ccc(OCC=C(C)C)c(O)c1 [Compound I-255] | <20 | <20 | 
19 | 4.6 | COc1cc(-c2ccc(O)cc2)c(OC)c(O)c1-c1ccc(OC/C=C/Br)c(O)c1 [Compound I-103] | 3.4 | 3.7 | 
20 | 4.89 | COc1cc(-c2ccc(O)cc2)c(OC)c(O)c1-c1ccc(OCC=C(C)Cl)c(O)c1 [Compound I-41] | 0.73 | 1.74 | 
21 | 11.9 | C/C=C\COc1ccc(-c2c(OC)cc(-c3ccc(O)cc3)c(OC)c2O)cc1O [Compound I-50] | 3.83 | 9.2 | 
22 | <20 | CC/C=C\COc1ccc(-c2c(OC)cc(-c3ccc(O)cc3)c(OC)c2O)cc1O [Compound I-9] | <20 | <20 | 
23 | 31.7 | C/C=C/COc1ccc(-c2c(OC)cc(-c3ccc(O)cc3)c(OC)c2O)cc1O [Compound I-49] | 8.89 | 16.2 | 
24 | <20 | COc1cc(-c2ccc(O)cc2)c(OC)c(O)c1-c1ccc(OCc2ccco2)c(O)c1 [Compound I-211] | <20 | <20 | 
25 | 13.6 | COc1cc(-c2ccc(O)cc2)c(OC)c(O)c1-c1ccc(OC/C=C(/C)CO)c(O)c1 [Compound I-299] | 5.53 | 7.85 | 
26 | <20 | C/C=C\COc1ccc(-c2c(OC)cc(-c3ccc(O)cc3)c(OC)c2O)cc1O [Compound I-173] | <20 | <20 | 
27 | 2.7 | COc1cc(-c2ccc(O)cc2)c(OC)c(C)c1-c1ccc(OCC=C(C)C)c(O)c1 [Compound I-106] | 0.6 | 0.4 | 
28 | 99.8 | COc1cc(-c2ccc(N(C)C)cc2)c(OC)c(OS(C)(=O)=O)c1-c1ccc(OCc2ccccc2)c(O)c1 [Compound I-360] | <20 | <20 | 
